Legend:
[1] = cn = amount concentration of the nth substance listed, in mol/dm3; settings: 100 kPa, Liquid, Alternating current cell with electrodes, c1 = 0.1
[2] = 101.33 kPa, Liquid; for viscosity: Falling or rolling sphere viscometry; for mass density: Vibrating tube method
[3] = refractive index (Na D-line) (dimensionless); settings: 101.33 kPa, Liquid, Standard Abbe refractometry

[Cl-].[K+] [potassium chloride] + O
[1]
Settings	electrical conductivity [S/m]
288.15 K	1.05
293.15 K	1.16
295.15 K	1.21
297.15 K	1.26
298.15 K	1.29
299.15 K	1.31
301.15 K	1.36
303.15 K	1.41
308.15 K	1.54
313.15 K	1.67
318.15 K	1.8
323.15 K	1.91

O [water]
Settings	mass density, [2] [kg/m3]	refractive index, [3]	viscosity, [2] [mPa·s]
298.15 K	–	1.33247	–
303.15 K	–	1.33188	0.798
308.15 K	–	1.33124	0.719
313.15 K	992.3	1.33053	0.654
318.15 K	990.3	1.32974	0.595
323.15 K	988.2	1.3289	0.546
328.15 K	985.9	1.32799	0.506
333.15 K	983.4	1.32704	0.466
338.15 K	980.8	1.32605	0.435
343.15 K	978	1.32503	0.408

Reference: the NIST ThermoML archive (doi:10.1016/j.jct.2014.05.019)
